Converted amounts (≈) assume the structure as drawn. Read-outs that look alike come from different tables or passages of the source.
Key:
P. aeruginosa (1051575) [1] = assay: Potentiation of chloramphenicol activity (combination MIC); type: cell-based, Pseudomonas aeruginosa; details: chloramphenicol 2 μg/mL; concentration of compound required to restore antibiotic activity
Protocol: This method requires the use of a 96-well plate: 100 μL of a liquid culture medium are placed in each well and then seeded with the microbial suspension prepared previously. The required volume to be seeded is calculated for an OD of 0.01, which corresponds to about 5×10^6 bacteria in each well. In this plate, the first line corresponds to a negative control (200 μL of sterile culture medium in each well), the second line corresponds to a positive control (100 μL of sterile culture medium+100 μL of the bacterial suspension), and the third line contains 192 μL of culture medium; 8 μL of compound of formula (I) to be tested are placed in each well. Thereafter, a cascade dilution is performed from this line. […] 92 μL of bacterial suspension are then added to lines 3 to 8. The results are read (the determination of the MIC (2 μg/mL of doxycycline) in the presence of X g/mL of compound of formula (I)) after 24 hours of incubation at 37° C. under a humid atmosphere. After 24 hours of incubation at 37° C., 40 μL of nitro tetrazolium iodide are added to each well to reveal the presence of live bacteria by staining the medium pink.
The procedure is identical to that indicated in Example 5 above. […]
(§1) The results are given in table V. They indicate the concentration of compound of formula (I) required to be able to restore the activity of the antibiotic under consideration.

E. coli Human ATCC 28922 = assay: MIC determination, E. coli human ATCC 28922; type: cell-based; details: Escherichia coli, ATCC28922; Gram-negative; Mueller-Hinton medium, 24 h at 37° C.
Protocol: (§2) A negative control (2 mL of sterile culture medium)
(§3) A positive control (1940 μL of culture medium+40 μL of DMSO+20 μL of the bacterial suspension) from a thawed biological strain (the biological strains are stored at −80° C. in glycerol).
(§4) The tubes were incubated at 37° C. for 24 hours at 100 rpm.
(§5) The microorganisms were handled under a type L2 laboratory fume cupboard and, before any handling, a UV cycle was programmed and only sterile material was used. […] The chemical compounds to be tested were prepared in a DMSO/methanol mixture (50/50) at a concentration of 5 mg/mL.
(§6) After 24 hours of incubation, a measurement of the optical density was taken using a spectrophotometer at 600 nm, collecting 100 μL of the bacterial suspension diluted in 900 μL of the sterile culture medium. This test required the use of a 96-well plate and the required volume of the microbial suspension to be seeded was calculated for an OD corresponding to a value equal to 0.01 in each well. In this plate, the first line corresponded to the negative control (195 μL of sterile culture medium in each well), the second line corresponded to the positive control (seeded culture medium supplemented with 2% of DMSO), and the third line was loaded twice with bacterial suspension; 8 μL of test product were placed in each well. Thereafter, a 0.5 cascade dilution was performed from this line.
(§7) The first column served as inhibition control. A sterile filter was then placed on the microplate, allowing the passage of gases but not of contaminants. The microplate was incubated at 37° C. under a humid atmosphere for 24 hours.
(§8) NB: The medium used is Mueller-Hinton (MH) medium for bacteria. All the tests were performed in duplicate.
(§9) After incubation, the filter was replaced with a transparent film, and an OD reading was then taken in an iEMS plate spectrophotometer at 620 nm. Calculation of the minimum inhibitory concentration (MIC) was performed.

S. aureus Animal (340) = assay: MIC determination, S. aureus animal (340); type: cell-based; details: Staphylococcus aureus; Gram-positive; Mueller-Hinton medium, 24 h at 37° C.
Protocol: as §2, §3, §4, §5, §6, §7, §8, §9

[2] = tested on: S. intermedius Animal (1051997); assay: MIC determination, S. intermedius animal (1051997); type: cell-based; details: Staphylococcus intermedius; Gram-positive; Mueller-Hinton medium, 24 h at 37° C.
Protocol: as §2, §3, §4, §5, §6, §7, §8, §9

[3] = tested on: S. aureus Human ATCC 25923; assay: MIC determination, S. aureus human ATCC 25923; type: cell-based; details: Staphylococcus aureus, ATCC25923; Gram-positive; Mueller-Hinton medium, 24 h at 37° C.
Protocol: as §2, §3, §4, §5, §6, §7, §8, §9

P. aeruginosa (1051575) [4] = assay: Potentiation of erythromycin activity (combination MIC); type: cell-based, Pseudomonas aeruginosa; details: erythromycin 2 μg/mL; concentration of compound required to restore antibiotic activity
Protocol: This method requires the use of a 96-well plate: 100 μL of a liquid culture medium are placed in each well and then seeded with the microbial suspension prepared previously. The required volume to be seeded is calculated for an OD of 0.01, which corresponds to about 5×10^6 bacteria in each well. In this plate, the first line corresponds to a negative control (200 μL of sterile culture medium in each well), the second line corresponds to a positive control (100 μL of sterile culture medium+100 μL of the bacterial suspension), and the third line contains 192 μL of culture medium; 8 μL of compound of formula (I) to be tested are placed in each well. Thereafter, a cascade dilution is performed from this line. L of a doxycycline solution (1 mg dissolved in 20 mL) are then added to each well of lines 3 to 8 to obtain a final antibiotic concentration of 2 μg/mL. 92 μL of bacterial suspension are then added to lines 3 to 8. The results are read (the determination of the MIC (2 μg/mL of doxycycline) in the presence of X g/mL of compound of formula (I)) after 24 hours of incubation at 37° C. under a humid atmosphere. After 24 hours of incubation at 37° C., 40 μL of nitro tetrazolium iodide are added to each well to reveal the presence of live bacteria by staining the medium pink.
The procedure is identical to that indicated in Example 5 above. 8 μL of an antibiotic solution under consideration (1 mg dissolved in 20 mL) are added to obtain a final antibiotic concentration of 2 μg/mL instead of 8 μL of a doxycycline solution.
as §1

E. coli Animal (1956) = assay: MIC determination, E. coli animal (1956); type: cell-based; details: Escherichia coli; Gram-negative; Mueller-Hinton medium, 24 h at 37° C.
Protocol: as §2, §3, §4, §5, §6, §7, §8, §9

[5] = tested on: E. faecalis Human ATCC 29212; assay: MIC determination, E. faecalis human ATCC 29212; type: cell-based; details: Enterococcus faecalis, ATCC29212; Gram-positive; Mueller-Hinton medium, 24 h at 37° C.
Protocol: as §2, §3, §4, §5, §6, §7, §8, §9

[6] = tested on: P. aeruginosa Human ATCC 27853; assay: MIC determination, P. aeruginosa human ATCC 27853; type: cell-based; details: Pseudomonas aeruginosa, ATCC27853; Gram-negative; Mueller-Hinton medium, 24 h at 37° C.
Protocol: as §2, §3, §4, §5, §6, §7, §8, §9

CHO-K1 cells = assay: WST1 cytotoxicity test on CHO-K1 cells; type: cell-based, Chinese hamster; details: Cricetulus griseus, read-out: IC50 (μg/mL) CHO
Protocol: Test WST1 was used to measure the cytotoxic activity of the products. This is a colorimetric test which makes it possible to measure the viability and the degree of cell proliferation. It is based on cleavage of the colorless tetrazolium salts WST-1 (4-[3-(4-iodophenyl)-2-(4-nitrophenyl)-2H-5-tetrazolio]-1,3-benzene disulfonate) with mitochondrial dehydrogenases to the yellow-colored formazan derivative, which may be quantified by spectrophotometry at 420-480 nm.
The WST1 test was performed on Chinese hamster ovary cells. The CHO-K1 cells (ATCC, USA) are kept in culture in McCoy's 5A medium supplemented with 10% fetal calf serum, 2 mM of L-glutamine and a mixture of penicillin-streptomycin (100 U/ml: 10 μg/ml). The culture is incubated at 37° C. under an atmosphere enriched in CO2 (5%), and subcultured every two days.
The cells are transferred into 96-well plates (25000 cells/mL) in whole McCoy's 5A medium, and maintained for 24 hours at 37° C. under a humid atmosphere enriched in CO2 (5%). Increasing concentrations of test products are added to the wells in double tests and 8 growth controls containing the cells in the medium alone are included in each series of tests. After 24 hours at 37° C. (5% CO2), the culture medium is removed, the cells are rinsed in phosphate buffer (PBS) and 50 μL of PBS containing 10% of reagent WST1 are added to each well. After 20 minutes of incubation at 37° C., the results are read by spectrophotometry at 450 nm.
The results are expressed in dose-response relationships, modeled by nonlinear regression analysis using the TableCurve software. The 50% inhibitory concentration (IC50) represents the concentration of product that is capable of reducing the cell viability by 50%.

[7] = tested on: P. aeruginosa Animal (1051575); assay: MIC determination, P. aeruginosa animal (1051575); type: cell-based; details: Pseudomonas aeruginosa; Gram-negative; Mueller-Hinton medium, 24 h at 37° C.
Protocol: as §2, §3, §4, §5, §6, §7, §8, §9

P. aeruginosa (1051575) [8] = assay: Potentiation of doxycycline activity (combination MIC); type: cell-based, Pseudomonas aeruginosa; details: in presence of doxycycline 2 μg/mL; 24 hours at 37° C.

SMILES	MIC P. aeruginosa (1051575) compound + chloramphenicol (P. aeruginosa (1051575) [1])	MIC (E. coli Human ATCC 28922)	MIC (S. aureus Animal (340))	MIC [2]	MIC [3]	MIC P. aeruginosa (1051575) compound + erythromycin (P. aeruginosa (1051575) [4])	MIC (E. coli Animal (1956))	MIC [5]	MIC [6]	IC50 (CHO-K1 cells; CHO-K1, 24 h)	MIC [7]	MIC - P. aeruginosa (1051575): content of compound of formula (I) to restore the doxycycline activity (at 2 μg/mL) (P. aeruginosa (1051575) [8])	IC50 (CHO-K1 cells; Table III, WST1 test, CHO-K1 cells, 24 hours)
CC(C)N(C(=O)CC[C@@H](C)[C@H]1CCC2C3C(CC[C@@]21C)[C@@]1(C)CC[C@H](NCCCNCCCCNCCCN)CC1C[C@H]3O)C(C)C (stereo partly drawn) [(50), 3β-spermino-N,N-diisopropylchenodeoxycholamide]	2 mg/L	> 130 mg/L	2 mg/L (≈ 3.03 µM)	2 mg/L (≈ 3.03 µM)	4 mg/L (≈ 6.06 µM)	4 mg/L	17 mg/L (≈ 25.8 µM)	4 mg/L (≈ 6.06 µM)	17 mg/L (≈ 25.8 µM)	25 µg/mL (≈ 37.9 µM)	17 mg/L (≈ 25.8 µM)	2 mg/L	
CC(C)NC(=O)CC[C@@H](C)[C@H]1CCC2C3C(C[C@H](O)[C@@]21C)[C@@]1(C)CC[C@H](NCCNCCNCCNCCNCCN)CC1C[C@H]3O (stereo partly drawn) [(21), 3β-(pentaethylenehexamine)-N-isopropylcholamide]	8 mg/L	130 mg/L (≈ 196 µM)	17 mg/L (≈ 25.6 µM)	8 mg/L (≈ 12 µM)	17 mg/L (≈ 25.6 µM)	30 mg/L	30 mg/L (≈ 45.2 µM)	30 mg/L (≈ 45.2 µM)	130 mg/L (≈ 196 µM)		30 mg/L (≈ 45.2 µM)		60 µg/mL (≈ 90.4 µM)
CC(C)N(C(=O)CC[C@@H](C)[C@H]1CCC2C3C(CC[C@@]21C)[C@@]1(C)CC[C@H](NCCCNCCCN)CC1C[C@H]3O)C(C)C (stereo partly drawn) [(37), 3β-norspermidino-N-diisopropylchenodeoxycholamide]	2 mg/L	15 mg/L (≈ 25.5 µM)	2 mg/L (≈ 3.4 µM)	1 mg/L (≈ 1.7 µM)	4 mg/L (≈ 6.79 µM)	7 mg/L	4 mg/L (≈ 6.79 µM)	4 mg/L (≈ 6.79 µM)	30 mg/L (≈ 50.9 µM)	35 µg/mL (≈ 59.4 µM)	15 mg/L (≈ 25.5 µM)	2 mg/L	
C[C@H](CCC(=O)NC1CCCCC1)[C@H]1CCC2C3C(CC[C@@]21C)[C@@]1(C)CC[C@H](NCCCNCCCCNCCCN)CC1C[C@H]3O (stereo partly drawn) [(51), 3β-spermino-N-cyclohexylchenodeoxycholamide]	2 mg/L	105 mg/L (≈ 160 µM)	2 mg/L (≈ 3.04 µM)	1 mg/L (≈ 1.52 µM)	4 mg/L (≈ 6.08 µM)	8 mg/L	16 mg/L (≈ 24.3 µM)	2 mg/L (≈ 3.04 µM)	16 mg/L (≈ 24.3 µM)	13 µg/mL (≈ 19.8 µM)	16 mg/L (≈ 24.3 µM)	2 mg/L	
CC(C)NC(=O)CC[C@@H](C)[C@H]1CCC2C3C(C[C@H](O)[C@@]21C)[C@@]1(C)CC[C@H](NCCCN(CCCN)CCCN)CC1C[C@H]3O (stereo partly drawn) [(43), 3β-(tris(3-aminopropyl)amine)-N-isopropylcholamide]	4 mg/L	125 mg/L (≈ 202 µM)	16 mg/L (≈ 25.8 µM)	8 mg/L (≈ 12.9 µM)	16 mg/L (≈ 25.8 µM)	30 mg/L	60 mg/L (≈ 96.8 µM)	60 mg/L (≈ 96.8 µM)	125 mg/L (≈ 202 µM)	38 µg/mL (≈ 61.3 µM)	60 mg/L (≈ 96.8 µM)	1 mg/L	
CC(C)NC(=O)CC[C@@H](C)[C@H]1CCC2C3C(CC[C@@]21C)[C@@]1(C)CC[C@H](NCCN(CCN)CCN)CC1C[C@H]3O (stereo partly drawn) [(45), 3β-(tris(2-aminoethyl)amine)-N-isopropylchenodeoxycholamide]	7 mg/L	110 mg/L (≈ 196 µM)	4 mg/L (≈ 7.12 µM)	2 mg/L (≈ 3.56 µM)	7 mg/L (≈ 12.5 µM)	28 mg/L	14 mg/L (≈ 24.9 µM)	14 mg/L (≈ 24.9 µM)	110 mg/L (≈ 196 µM)	60 µg/mL (≈ 107 µM)	28 mg/L (≈ 49.8 µM)	7 mg/L	
CCN(CC)C(=O)CC[C@@H](C)[C@H]1CCC2C3C(CC[C@@]21C)[C@@]1(C)CC[C@H](NCCCNCCCN)CC1C[C@H]3O (stereo partly drawn) [(13), 3β-norspermidino-N,N-diethylchenodeoxycholamide]		8 mg/L (≈ 14.3 µM)	4 mg/L (≈ 7.13 µM)	2 mg/L (≈ 3.57 µM)	2 mg/L (≈ 3.57 µM)		8 mg/L (≈ 14.3 µM)	2 mg/L (≈ 3.57 µM)	16 mg/L (≈ 28.5 µM)	22 µg/mL (≈ 39.2 µM)	16 mg/L (≈ 28.5 µM)	2 mg/L	

Source: US10780101B2, “Amide derivatives of squalamine for the treatment of infections” (VIRBAC, priority 2016, dated 2020)
